Active and inactive are the calls of the source.
What was measured:
Genome polyprotein = Genome polyprotein (dengue virus type 2, UniProt P29990); assay: Dengue-2 NS5 methyltransferase inhibitors, primary screen, biochemical, confirmation dose response (AID 588689); format: functional
BJ [1] = assay: cytotoxicity toward BJ-TERT fibroblasts, dose response, cell-based, RAS-independent, luminescence (AID 1933); format: functional; conditions: Homo sapiens
[2] = Luminescence Cell-Based Dose Confirmation HTS to Identify Inhibitors of Platelet Dense Granule Release. [Related pubchem assays: 1663 (Primary HTS), 1678 (Summary of Project)]; format: functional
BJ [3] = assay: cells; format: functional, cell-based; conditions: Homo sapiens
[4] = biological target: Protein-tyrosine kinase 2-beta (Homo sapiens, UniProt Q14289); format: functional
[5] = biological target: Serine/threonine-protein kinase D2 (Homo sapiens, UniProt Q9BZL6); format: functional;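 also: measured against PRKD2 as one member of a kinome-wide kinase profiling panel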
[6] = biological target: Tyrosine-protein kinase JAK3 (Homo sapiens, UniProt P52333); format: functional
Ephrin type-A receptor 2 = Ephrin type-A receptor 2 (Homo sapiens, UniProt P29317); format: functional;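 also: EPHA2 tested as one member of a kinome-wide kinase panel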
[7] = biological target: Tyrosine-protein kinase Blk (Homo sapiens, UniProt P51451); format: functional;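 also: obtained as one member of a kinome-wide kinase assay panel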
[8] = biological target: Serine/threonine-protein kinase DCLK1 (Homo sapiens, UniProt O15075); format: functional;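 also: affinity for DCLK1 (listed as DCAMKL1) measured as one member of a kinome-wide kinase profiling panel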
[9] = biological target: Mast/stem cell growth factor receptor Kit (Homo sapiens, UniProt P10721); format: functional;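 also: KIT entry within a kinase panel assay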
[10] = biological target: 5'-AMP-activated protein kinase catalytic subunit alpha-1 (Homo sapiens, UniProt Q13131); format: functional
[11] = biological target: BDNF/NT-3 growth factors receptor (Homo sapiens, UniProt Q16620); format: functional;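 also: NTRK2 measured as one member of a broad kinome-wide kinase profiling panel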
[12] = biological target: Testis-specific serine/threonine-protein kinase 2 (Homo sapiens, UniProt Q96PF2); format: functional;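 also: part of the Navigating the Kinome panel, target entry STK22B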
[13] = biological target: Death-associated protein kinase 3 (Homo sapiens, UniProt O43293); format: functional;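 also: measured as one member of a kinome-wide profiling panel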
[14] = biological target: Tyrosine-protein kinase JAK2 (Homo sapiens, UniProt O60674); format: functional;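 also: JAK2 tested as one member of a kinase panel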
[15] = biological target: Homeodomain-interacting protein kinase 4 (Homo sapiens, UniProt Q8NE63); format: functional
[16] = biological target: Casein kinase I isoform alpha (Homo sapiens, UniProt P48729); format: functional
[17] = biological target: Calcium/calmodulin-dependent protein kinase type 1 (Homo sapiens, UniProt Q14012); format: functional
[18] = biological target: Vascular endothelial growth factor receptor 1 (Homo sapiens, UniProt P17948); format: functional;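 also: measured within a kinome-wide profiling panel, FLT1 as the panel member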
Aurora kinase B = Aurora kinase B (Homo sapiens, UniProt Q96GD4); format: functional
[19] = biological target: MAP kinase-activated protein kinase 2 (Homo sapiens, UniProt P49137); format: functional;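 also: measured as one member of a kinome-wide kinase panel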
Misshapen-like kinase 1 = Misshapen-like kinase 1 (Homo sapiens, UniProt Q8N4C8); format: functional;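 also: kinome panel screen with MINK as the panel member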
[20] = biological target: Maternal embryonic leucine zipper kinase (Homo sapiens, UniProt Q14680); format: functional
[21] = biological target: Dual specificity tyrosine-phosphorylation-regulated kinase 1A (Homo sapiens, UniProt Q13627); format: functional;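 also: measured against DYRK1A as one member of a broad kinome profiling panel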
[22] = biological target: Serine/threonine-protein kinase MRCK alpha (Homo sapiens, UniProt Q5VT25); format: functional
[23] = biological target: Insulin-like growth factor 1 receptor (Homo sapiens, UniProt P08069); assay: Navigating the Kinome. Panel member name: IGF1R; format: functional
[24] = NIH-3T3 fibroblast cytotoxicity, dose response, cytotoxicity control, cell-based, fluorescence, Alamar Blue, secondary assay (AID 2327); format: functional;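 also: NIH-3T3 mouse fibroblasts cultured with fluconazole at 8 µg/mL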
[25] = non-specific cell cytotoxicity, dose response, cytotoxicity control for PAX8 inhibitor project, plate reader, dry powder samples (AID 743021); format: functional, cell-based
HEK293 = assay: optical interference in Abeta FP readout, dose response, artefact control for IDE activator project, biochemical, fluorescence polarization (AID 588442); format: functional, cell-based; conditions: Homo sapiens
[26] = biological target: Serine/threonine-protein phosphatase (Homo sapiens, UniProt Q9BPW0); assay: PP5 phosphatase inhibitors, dose response, biochemical, fluorescence (AID 2395)
[27] = biological target: T1, Sentrin-specific protease 7 (Homo sapiens, UniProt Q9BQF6); format: functional;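 also: Luminescence-based dose-response confirmation of ultra-high-throughput screening hits, measuring inhibition of SENP7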
T1 sequence (Q9BQF6 whole entry): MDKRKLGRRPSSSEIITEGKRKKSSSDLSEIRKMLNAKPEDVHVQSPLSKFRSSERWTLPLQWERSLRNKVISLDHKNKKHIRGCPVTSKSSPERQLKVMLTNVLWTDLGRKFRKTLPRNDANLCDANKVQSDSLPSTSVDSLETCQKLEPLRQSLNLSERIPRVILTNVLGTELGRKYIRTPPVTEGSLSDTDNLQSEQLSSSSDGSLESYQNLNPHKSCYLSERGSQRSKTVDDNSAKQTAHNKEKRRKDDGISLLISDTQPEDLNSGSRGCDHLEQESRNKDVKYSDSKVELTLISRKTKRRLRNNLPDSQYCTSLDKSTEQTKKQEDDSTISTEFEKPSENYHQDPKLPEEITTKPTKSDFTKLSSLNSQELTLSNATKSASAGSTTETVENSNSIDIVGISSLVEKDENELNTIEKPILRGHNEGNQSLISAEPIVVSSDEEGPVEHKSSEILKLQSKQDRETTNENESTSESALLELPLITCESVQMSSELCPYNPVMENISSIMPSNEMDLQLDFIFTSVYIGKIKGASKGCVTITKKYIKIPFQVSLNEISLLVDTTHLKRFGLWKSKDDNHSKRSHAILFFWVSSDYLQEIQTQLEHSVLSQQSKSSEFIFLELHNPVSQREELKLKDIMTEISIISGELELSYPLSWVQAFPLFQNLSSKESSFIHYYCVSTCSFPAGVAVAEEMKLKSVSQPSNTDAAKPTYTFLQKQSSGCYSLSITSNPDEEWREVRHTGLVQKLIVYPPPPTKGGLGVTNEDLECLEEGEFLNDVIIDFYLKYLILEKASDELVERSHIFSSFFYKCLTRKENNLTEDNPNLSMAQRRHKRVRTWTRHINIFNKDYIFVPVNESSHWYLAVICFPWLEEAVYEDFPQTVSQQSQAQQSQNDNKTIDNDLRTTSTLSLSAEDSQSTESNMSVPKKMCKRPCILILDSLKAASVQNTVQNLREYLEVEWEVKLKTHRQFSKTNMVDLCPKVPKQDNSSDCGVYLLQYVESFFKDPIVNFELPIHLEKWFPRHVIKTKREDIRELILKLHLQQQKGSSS

Sequence of Testis-specific serine/threonine-protein kinase 2 (Q96PF2 whole entry): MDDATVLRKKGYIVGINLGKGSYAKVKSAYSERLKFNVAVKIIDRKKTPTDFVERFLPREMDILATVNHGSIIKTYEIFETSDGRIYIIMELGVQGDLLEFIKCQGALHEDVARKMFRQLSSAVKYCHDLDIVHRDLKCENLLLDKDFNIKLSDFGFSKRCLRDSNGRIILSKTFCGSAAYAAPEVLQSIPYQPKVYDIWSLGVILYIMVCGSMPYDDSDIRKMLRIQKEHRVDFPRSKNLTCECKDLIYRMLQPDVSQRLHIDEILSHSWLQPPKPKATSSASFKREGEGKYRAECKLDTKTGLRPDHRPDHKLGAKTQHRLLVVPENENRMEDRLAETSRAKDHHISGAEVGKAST
Sequence of Maternal embryonic leucine zipper kinase (Q14680 whole entry): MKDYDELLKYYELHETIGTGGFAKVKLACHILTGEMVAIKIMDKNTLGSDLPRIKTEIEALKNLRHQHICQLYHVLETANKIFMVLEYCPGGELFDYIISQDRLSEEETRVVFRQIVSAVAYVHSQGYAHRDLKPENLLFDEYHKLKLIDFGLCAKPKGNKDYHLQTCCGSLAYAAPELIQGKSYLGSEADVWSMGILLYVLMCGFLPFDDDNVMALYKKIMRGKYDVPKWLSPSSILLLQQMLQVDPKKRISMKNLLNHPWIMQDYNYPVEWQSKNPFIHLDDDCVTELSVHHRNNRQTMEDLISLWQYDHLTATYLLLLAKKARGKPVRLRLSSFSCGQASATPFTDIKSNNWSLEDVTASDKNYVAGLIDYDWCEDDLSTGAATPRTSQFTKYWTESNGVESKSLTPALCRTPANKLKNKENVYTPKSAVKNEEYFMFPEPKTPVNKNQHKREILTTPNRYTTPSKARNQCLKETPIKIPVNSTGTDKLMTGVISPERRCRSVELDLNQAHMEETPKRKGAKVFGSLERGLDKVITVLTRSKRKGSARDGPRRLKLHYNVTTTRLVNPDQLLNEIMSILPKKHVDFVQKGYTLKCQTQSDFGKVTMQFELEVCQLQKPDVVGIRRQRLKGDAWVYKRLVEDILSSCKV
Sequence of Casein kinase I isoform alpha (P48729 whole entry, canonical isoform): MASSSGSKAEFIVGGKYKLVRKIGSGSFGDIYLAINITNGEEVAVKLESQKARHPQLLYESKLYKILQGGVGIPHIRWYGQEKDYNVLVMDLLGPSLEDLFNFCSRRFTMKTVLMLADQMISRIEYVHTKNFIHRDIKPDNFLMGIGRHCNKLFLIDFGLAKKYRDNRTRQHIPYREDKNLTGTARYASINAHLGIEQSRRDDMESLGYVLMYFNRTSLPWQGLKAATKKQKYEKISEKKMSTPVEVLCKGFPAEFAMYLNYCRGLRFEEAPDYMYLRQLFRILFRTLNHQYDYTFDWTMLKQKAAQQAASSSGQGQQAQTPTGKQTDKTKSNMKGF
Sequence of Serine/threonine-protein phosphatase (Q9BPW0 whole entry): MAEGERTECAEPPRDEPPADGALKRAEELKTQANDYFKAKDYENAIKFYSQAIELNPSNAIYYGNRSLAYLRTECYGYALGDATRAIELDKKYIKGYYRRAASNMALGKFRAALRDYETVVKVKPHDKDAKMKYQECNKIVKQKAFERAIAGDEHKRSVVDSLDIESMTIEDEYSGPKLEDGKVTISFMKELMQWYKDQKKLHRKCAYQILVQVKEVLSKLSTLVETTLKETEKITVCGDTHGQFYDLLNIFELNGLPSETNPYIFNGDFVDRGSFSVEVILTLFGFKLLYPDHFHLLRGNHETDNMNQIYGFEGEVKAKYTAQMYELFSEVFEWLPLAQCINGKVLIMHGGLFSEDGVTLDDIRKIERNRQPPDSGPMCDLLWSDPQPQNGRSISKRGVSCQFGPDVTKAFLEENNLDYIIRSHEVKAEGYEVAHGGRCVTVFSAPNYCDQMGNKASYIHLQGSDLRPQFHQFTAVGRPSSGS
Sequence of Mast/stem cell growth factor receptor Kit (P10721 whole entry): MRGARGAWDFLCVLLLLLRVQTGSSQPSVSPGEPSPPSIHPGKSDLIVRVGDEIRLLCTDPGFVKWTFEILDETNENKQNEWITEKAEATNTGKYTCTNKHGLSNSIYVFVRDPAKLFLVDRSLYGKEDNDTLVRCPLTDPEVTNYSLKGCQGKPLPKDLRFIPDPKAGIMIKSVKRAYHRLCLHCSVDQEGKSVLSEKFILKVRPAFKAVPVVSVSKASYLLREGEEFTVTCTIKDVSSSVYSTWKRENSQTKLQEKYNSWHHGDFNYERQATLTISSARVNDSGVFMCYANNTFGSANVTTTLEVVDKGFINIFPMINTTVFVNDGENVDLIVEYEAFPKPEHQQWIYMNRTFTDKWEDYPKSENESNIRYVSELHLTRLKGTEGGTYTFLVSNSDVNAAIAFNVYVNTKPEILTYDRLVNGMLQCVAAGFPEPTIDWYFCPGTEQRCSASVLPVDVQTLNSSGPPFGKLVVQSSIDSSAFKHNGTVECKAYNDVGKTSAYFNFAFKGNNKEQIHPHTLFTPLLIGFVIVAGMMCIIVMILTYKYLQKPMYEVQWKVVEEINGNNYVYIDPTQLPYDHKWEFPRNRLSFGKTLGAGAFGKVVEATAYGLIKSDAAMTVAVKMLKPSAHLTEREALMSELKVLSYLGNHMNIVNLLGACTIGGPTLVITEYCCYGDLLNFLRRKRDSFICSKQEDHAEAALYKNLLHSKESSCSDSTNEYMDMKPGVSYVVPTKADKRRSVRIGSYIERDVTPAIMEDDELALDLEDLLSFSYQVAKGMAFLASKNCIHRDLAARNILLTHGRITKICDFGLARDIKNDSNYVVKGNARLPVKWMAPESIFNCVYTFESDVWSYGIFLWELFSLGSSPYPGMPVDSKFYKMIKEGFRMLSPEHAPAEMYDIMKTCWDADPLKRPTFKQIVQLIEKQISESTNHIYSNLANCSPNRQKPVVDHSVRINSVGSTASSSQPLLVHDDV
Sequence of Serine/threonine-protein kinase MRCK alpha (Q5VT25 whole entry): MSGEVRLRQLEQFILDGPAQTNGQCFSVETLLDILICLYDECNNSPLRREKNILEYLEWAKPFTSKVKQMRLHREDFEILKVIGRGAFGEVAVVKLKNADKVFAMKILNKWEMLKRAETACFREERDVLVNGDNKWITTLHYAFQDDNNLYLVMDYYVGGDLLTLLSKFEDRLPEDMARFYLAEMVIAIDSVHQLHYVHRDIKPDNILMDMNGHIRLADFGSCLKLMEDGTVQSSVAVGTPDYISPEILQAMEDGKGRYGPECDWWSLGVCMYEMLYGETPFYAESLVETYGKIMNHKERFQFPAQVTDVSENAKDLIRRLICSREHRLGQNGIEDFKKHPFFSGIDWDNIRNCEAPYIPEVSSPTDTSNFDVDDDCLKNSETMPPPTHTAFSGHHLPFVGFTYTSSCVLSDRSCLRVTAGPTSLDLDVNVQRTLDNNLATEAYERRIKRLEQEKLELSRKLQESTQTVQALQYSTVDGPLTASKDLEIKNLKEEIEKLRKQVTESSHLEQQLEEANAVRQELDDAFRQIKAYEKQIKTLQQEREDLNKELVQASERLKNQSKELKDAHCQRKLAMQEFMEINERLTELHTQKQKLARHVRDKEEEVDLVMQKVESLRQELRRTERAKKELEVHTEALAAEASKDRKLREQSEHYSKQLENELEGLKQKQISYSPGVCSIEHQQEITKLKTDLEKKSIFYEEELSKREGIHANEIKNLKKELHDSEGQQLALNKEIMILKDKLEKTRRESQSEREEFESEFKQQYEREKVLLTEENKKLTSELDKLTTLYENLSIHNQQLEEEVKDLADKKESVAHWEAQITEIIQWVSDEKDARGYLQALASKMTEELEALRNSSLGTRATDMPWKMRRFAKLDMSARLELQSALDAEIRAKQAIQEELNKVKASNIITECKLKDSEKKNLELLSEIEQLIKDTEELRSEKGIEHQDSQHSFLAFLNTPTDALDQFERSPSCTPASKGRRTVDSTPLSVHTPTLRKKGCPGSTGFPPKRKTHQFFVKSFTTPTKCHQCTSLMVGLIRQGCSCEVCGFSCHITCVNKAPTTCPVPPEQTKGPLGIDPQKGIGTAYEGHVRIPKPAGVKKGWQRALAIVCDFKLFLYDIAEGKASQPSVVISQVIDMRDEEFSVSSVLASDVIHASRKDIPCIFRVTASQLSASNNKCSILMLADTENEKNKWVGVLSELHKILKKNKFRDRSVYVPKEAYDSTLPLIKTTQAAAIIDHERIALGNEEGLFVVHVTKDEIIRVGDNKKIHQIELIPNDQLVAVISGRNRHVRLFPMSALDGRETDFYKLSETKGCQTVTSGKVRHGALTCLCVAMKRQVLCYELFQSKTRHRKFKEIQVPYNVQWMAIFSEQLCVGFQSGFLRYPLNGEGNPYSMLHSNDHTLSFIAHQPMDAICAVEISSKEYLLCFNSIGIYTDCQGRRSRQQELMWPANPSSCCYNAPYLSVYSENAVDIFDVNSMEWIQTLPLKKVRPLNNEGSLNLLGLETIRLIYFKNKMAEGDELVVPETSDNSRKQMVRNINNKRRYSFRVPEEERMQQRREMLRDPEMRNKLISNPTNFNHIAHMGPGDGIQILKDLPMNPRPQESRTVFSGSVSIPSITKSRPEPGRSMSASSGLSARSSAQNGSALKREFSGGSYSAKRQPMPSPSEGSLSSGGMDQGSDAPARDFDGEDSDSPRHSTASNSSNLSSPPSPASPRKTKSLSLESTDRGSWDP
Sequence of Death-associated protein kinase 3 (O43293 whole entry): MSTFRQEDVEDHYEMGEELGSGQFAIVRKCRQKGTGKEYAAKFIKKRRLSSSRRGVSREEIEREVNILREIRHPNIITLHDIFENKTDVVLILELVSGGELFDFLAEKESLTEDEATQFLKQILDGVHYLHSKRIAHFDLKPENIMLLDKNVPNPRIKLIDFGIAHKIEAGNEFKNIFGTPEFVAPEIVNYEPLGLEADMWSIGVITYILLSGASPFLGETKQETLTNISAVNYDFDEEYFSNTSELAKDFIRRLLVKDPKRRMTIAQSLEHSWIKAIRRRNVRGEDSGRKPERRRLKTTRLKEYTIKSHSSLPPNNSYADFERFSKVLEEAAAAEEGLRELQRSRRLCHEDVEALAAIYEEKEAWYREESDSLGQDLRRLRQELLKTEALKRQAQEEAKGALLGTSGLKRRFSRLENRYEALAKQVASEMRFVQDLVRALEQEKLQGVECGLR

O=[N+]([O-])c1c(Nc2ccccn2)cc(Cl)c2nonc12
inconclusive: EC50 (BJ [1]) 5.14 µM
active: IC50 (Genome polyprotein) 20 µM | EC50 [2] 3.55 µM | EC50 (BJ [3]) 5.38 µM

CC(C)(CO)CNc1nccc(-c2c(-c3ccc(F)cc3)nc3c(CC4CC4)nccn23)n1
active: Ki [16] 1.26 µM | Ki (Misshapen-like kinase 1) 3.16 µM | Ki [21] 2.51 µM
inactive: Ki [4] > 1.58 µM | Ki [5] > 10 µM | Ki [6] > 1.58 µM | Ki (Ephrin type-A receptor 2) > 3.16 µM | Ki [7] > 1.58 µM | Ki [8] > 10 µM | Ki [9] > 1.26 µM | Ki [10] > 6.31 µM | Ki [11] > 5.01 µM | Ki [12] > 1.58 µM | Ki [13] > 1.26 µM | Ki [14] > 1.58 µM | Ki [15] > 7.94 µM | Ki [17] > 5.01 µM | Ki [18] > 0.398 µM | Ki (Aurora kinase B) > 6.31 µM | Ki [19] > 7.94 µM | Ki [20] > 1.58 µM | Ki [22] > 10 µM | Ki [23] > 2 µM

CC[C@@H](C)[C@H](CNC)NC[C@@H](Cc1cccc2ccccc12)NCCc1cccc(C(F)(F)F)c1
inconclusive: EC50 [24] > 150 µM
inactive: EC50 (HEK293) > 54.7 µM
active: AC50 [25] 27.5 µM

Cc1ccc(C(=O)NC2(O)C(=O)c3ccccc3C2=O)cc1C
active: IC50 [26] > 0.828 µM | IC50 [27] 4.4 µM
